Values of other authors in US4556660A, “N-(Bicyclic heterocyclyl)-4-piperidinamines” (Janssen Pharmaceutica N.V., priority 1983, dated 1985).

System: compound 48/80-induced cyanosis, lesions in the glandular area of the stomach and abnormal gastric distension
Settings: rats injected with compound 48/80; cited from earlier work

SMILES	prevention of cyanosis of ears and extremities, lesions in the glandular area of the stomach and abnormal gastric distension
NC(=O)C1(N2CCCCC2)CCN(CCCC(=O)c2ccc(F)cc2)CC1 [pipamperone]	prevent completely
CN1CCC(=C2c3ccccc3CCc3sccc32)CC1 [pizotifen]	prevent completely
O=C(CCCN1CCC2(CC1)C(=O)NCN2c1ccccc1)c1ccc(F)cc1 [spiperone]	prevent completely
